Experimental findings from PubChem BioAssay (NCI) are described below.

What all share (assay): NCI anticancer screen, dose series, 48 h
Experiment [1] concerns HCC-2998 colon.
The test system of experiment [2] is HT29 colon.
Experiment [3] deals with MALME-3M melanoma.
In experiment [4] the test system is NCI-H226 lung.
Experiment [5] relates to NCI-H460 lung.
Experiment [6] relates to OVCAR-5 ovarian.
For experiment [7], the system named is SK-MEL-2 melanoma.
Experiment [8] has as its system SW-620 colon.
Experiment [9] deals with U251 CNS.
In experiment [10] the test system is UACC-257 melanoma.

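96-well plates; 48 h exposure; 5 concentrations. Endpoints by linear interpolation between flanking doses. Not reached: highest tested concentration assigned. GI50 is the concentration that inhibits growth by half. At the TGI there is no net growth.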

Regarding `CCOc1ccc2c(ccc(/C=C\c3cc(C)c4cccnc4c3O)[n+]2C)c1`, the TGI in experiment [1] is over 100 µM; in [2] it was over 32.8 µM; in [3], 14 µM; in [4] it was 3.77 µM; in experiment [5] it was 10.2 µM; in experiment [6], 16.7 µM. Also, the TGI amounted to 3.24 µM in experiment [7], 28 µM in [8], 4.53 µM in [9] and 6.9 µM in [10].
As to `COc1cc2c3c(n(CCN(C)C)c(=O)c2cc1OC)-c1cc2c(cc1C3=O)OCO2`, the GI50 was 3.5 µM in experiment [1]; 6.17 µM in [3]; 1.08 µM in [4]; 0.157 µM in experiment [5]; over 100 µM in experiment [6]; over 96.1 µM in experiment [7]. The values for the GI50 in [8], in experiment [9] and in experiment [10] were 2.86 µM, 2.64 µM and 12.6 µM, respectively. Moreover, the TGI in experiment [1] is over 100 µM; in [2] it was over 73.4 µM; in experiment [3], over 52.6 µM; in experiment [4] it was 57.9 µM; in experiment [5], over 100 µM; in [6] it was over 100 µM. The TGI in experiment [7], in [8], in [9] and in experiment [10] was over 100 µM each time.
In the case of `O=C(O)c1cc(=O)[nH]c(=S)[nH]1`, the TGI in experiment [1], in experiment [2], in experiment [3], in experiment [4], in experiment [5] and in experiment [6] was over 100 µM in each case. The TGI in experiment [7], in experiment [8], in experiment [9] and in experiment [10] was over 100 µM each time.
Consider `CCCCN(CCCC)CCCCNc1c(C)cnc2cc(Cl)ccc12`, for which the TGI in experiment [1] is 29.4 µM; in experiment [2], 57.8 µM; in [3], 36.1 µM; in experiment [4], 43.4 µM; in experiment [5], over 100 µM; in experiment [6], 39.1 µM. Also, the TGI in experiment [7] is 39.9 µM; in [8], 56.8 µM; in experiment [9] it was over 100 µM; in experiment [10], 32.5 µM.
`Cc1ccc(S(=O)(=O)Oc2cc(S(=O)(=O)O)cc3cc(S(=O)(=O)O)cc(N)c23)cc1`: the TGI in [1], in experiment [2], in experiment [3], in experiment [4], in experiment [5] and in [6] was over 100 µM each time. The TGI in [7], in experiment [8], in experiment [9] and in [10] was over 100 µM each time.
For the compound `c1ccc2c(c1)nc1n2CSC1`, the TGI in experiment [2], in experiment [3], in experiment [4], in [5], in experiment [7] and in experiment [8] was over 100 µM throughout. The compound further gave a TGI in experiment [9] of over 100 µM.
`O=C(Nc1ccc(Cl)cc1)/C(Cc1cccc[n+]1[O-])=N\Nc1ccc([N+](=O)[O-])cc1[N+](=O)[O-]`: the TGI in experiment [1], in experiment [3], in experiment [5], in experiment [6], in experiment [7] and in experiment [8] was over 100 µM each time. In addition, the TGI in experiment [9] and in experiment [10] was over 100 µM throughout.
On to `[C-]#[O+].[Cl][Sn]([Cl])[Cl].[Cl][Sn]([Cl])[Cl].[Pt].c1ccncc1`, for which the TGI in [1], in experiment [2], in [3], in [4], in experiment [5] and in experiment [6] was over 100 µM in each case. For the same compound, the TGI in experiment [7], in [8], in [9] and in experiment [10] was over 100 µM throughout.
`CCN(CC)CCCC(Nc1c2ccc(Cl)cc2nc2ccc(OC)cc12)c1ccc(F)cc1` (configuration not stated): the GI50 in experiment [1] was 1.74 µM; in experiment [2], 2.7 µM; in [3], 1.99 µM; in [4], 20.9 µM; in [5] it was 1.91 µM; in experiment [6], 2.04 µM. The GI50 is 2.1 µM in experiment [7], 1.79 µM in experiment [8], 1.92 µM in experiment [9] and 2.02 µM in [10]. The TGI in experiment [1] was found to be 3.25 µM; in experiment [2], 9.87 µM; in experiment [3], 3.68 µM; in experiment [4], 47.5 µM; in experiment [5], 3.84 µM; in experiment [6], 5.6 µM. The TGI is 4.35 µM in [7], 3.65 µM in experiment [8], 3.88 µM in experiment [9] and 4.1 µM in experiment [10].
As for `CN1C2C=C(c3ccccc3)CC1CC2` (configuration not stated), the TGI in [1], in [2], in experiment [3], in experiment [5], in experiment [6] and in [7] was over 100 µM in each case. The TGI in [8], in [9] and in experiment [10] was over 100 µM in each case.
Consider `O=C1CN2C(Cl)(Cl)C2(c2ccccc2)c2cc(Cl)ccc2N1CC(F)(F)F` (configuration not stated), for which the TGI is 35.9 µM in experiment [1]; 48.1 µM in [2]; 87 µM in [3]; 67 µM in experiment [4]; 35.9 µM in [5]; over 100 µM in experiment [6]. The TGI is 54.9 µM in [7], over 100 µM in experiment [8], 37.8 µM in experiment [9] and 51.9 µM in [10].
As for `CC1=C[C@]2(CC(C)C3C(CC4(C)C5CCC6C(C)(C)C(=O)CC[C@@]67C[C@@]57CC[C@]34C)O2)OC1=O` (some centres not stated), the TGI in [1] was over 100 µM; in experiment [2], over 100 µM; in experiment [3], over 100 µM; in experiment [4], 22 µM; in experiment [5], over 100 µM; in [6], over 100 µM. For the same compound, the TGI in experiment [7], in experiment [8], in [9] and in experiment [10] was over 100 µM in each case.
Turning to `CCOP(=O)(OCC)C(Cc1ccc(OC)c(OC)c1)N=C(c1ccccc1)c1ccccc1` (configuration not stated), the TGI is 52.4 µM in experiment [1]; over 100 µM in [2]; over 100 µM in [4]; over 100 µM in experiment [5]; over 100 µM in [6]; over 100 µM in experiment [8]. Also, the TGI in experiment [9] and in [10] was over 100 µM each time.
In the case of `CC(/C=C/c1ccc([N+](=O)[O-])o1)=N/N1CC(CN2CCOCC2)OC1=O` (configuration not stated), the TGI in experiment [1] was over 100 µM; in experiment [2], over 100 µM; in experiment [3], 41.3 µM; in experiment [4], 52.1 µM; in experiment [5], 46.9 µM; in [6], over 100 µM. For the same compound, the TGI is 34.6 µM in [7], 77.3 µM in [8], over 100 µM in experiment [9] and 36.5 µM in experiment [10].
For the compound `COc1ccc(/C=N/NC(=O)NCCCN(C)C)cc1`, the TGI in experiment [2], in experiment [3], in experiment [4], in experiment [5], in experiment [7] and in experiment [8] was over 100 µM each time. Further, the TGI in experiment [9] and in experiment [10] was over 100 µM throughout.
For the compound `CCOc1ccc(/C=C/[N+](=O)[O-])cc1`, the GI50 was 1.82 µM in [1]; 2.32 µM in experiment [2]; 19 µM in experiment [3]; 3.06 µM in experiment [4]; 26.8 µM in experiment [5]; 6.31 µM in [6]. Also, the GI50 in [7] was 17.1 µM; in [8] it was 3.15 µM; in experiment [9] it was 3.1 µM; in [10], 11.2 µM. Also, the TGI was 3.94 µM in [1]; 5.27 µM in experiment [2]; 36.9 µM in [3]; 11.7 µM in experiment [4]; over 100 µM in experiment [5]; 19.8 µM in experiment [6]. Besides, the TGI in [7] is 33 µM; in experiment [8], 11.9 µM; in [9] it was 8.83 µM; in experiment [10], 24 µM.
Consider `Cc1nc2ccccc2c(=O)n1CC(=O)O`, for which the TGI in [1], in experiment [2], in [3], in [4], in [5] and in experiment [6] was over 100 µM throughout. For the same compound, the TGI in [7], in experiment [8], in experiment [9] and in experiment [10] was over 100 µM throughout.
For `Cn1cc(C[C@@H](N)C(=O)O)c2ccccc21`, the TGI in experiment [1], in experiment [2], in experiment [3], in experiment [4], in experiment [5] and in experiment [6] was over 100 µM in each case. The TGI in experiment [7], in experiment [8], in [9] and in experiment [10] was over 100 µM each time.
For `Cc1cccc2c(N)c3cccc(C(=O)NCCN(C)C)c3nc12`, the TGI in [1] stood at 0.218 µM; in experiment [3], 0.606 µM; in [4], 1.48 µM; in experiment [5], 0.0262 µM; in [6], 0.723 µM; in [7], 0.463 µM. The TGI in [9] worked out at 0.604 µM; in experiment [10] it was 0.658 µM.
`Nc1ncnc2c1ncn2C1CCC(CO)O1` (configuration not stated): the TGI in [1] is over 77.4 µM; in experiment [2], over 67.2 µM; in [3], over 100 µM; in experiment [4] it was over 74.7 µM; in experiment [5], over 100 µM; in [6] it was over 100 µM. The TGI in [7], in experiment [8], in experiment [9] and in experiment [10] was over 100 µM in each case.
As for `CC(C)=CCc1c(C)cc2cc3c(c(O)c2c1O)C(O)=CC(=O)C3(CC=C(C)C)C/C=C(\C)CO` (configuration not stated), the TGI in [1] is 88.6 µM; in experiment [2] it was 81.4 µM; in [3], 63.8 µM; in experiment [4], 77 µM; in [5] it was 98.9 µM; in experiment [6], 84.6 µM. Besides, the TGI in experiment [7] is 29.8 µM; in experiment [8], 78.9 µM; in experiment [9], 70 µM; in experiment [10], 82.6 µM.
For `CC[C@@H](C(=O)[C@@H](C)[C@@H](O)[C@H](C)CCc1ccc(C)c(O)c1C(=O)O)[C@H]1O[C@](CC)([C@H]2CC[C@](O)(CC)[C@H](C)O2)C[C@@H]1C`, the TGI was 11.4 µM in experiment [1]; 12.6 µM in experiment [2]; 2.42 µM in experiment [3]; 10.8 µM in experiment [4]; 9.47 µM in experiment [5]; 19.3 µM in experiment [6]. Moreover, the TGI in [7] is 3.82 µM; in [8], 15.6 µM; in experiment [9], 6.33 µM; in experiment [10], 11.3 µM.
Turning to `O=C(Nc1nc2ccc([N+](=O)[O-])cc2[n+]([O-])n1)C(F)(F)F`, the TGI in [1] was over 100 µM; in [2], over 100 µM; in experiment [3], 20.4 µM; in experiment [4], over 100 µM; in experiment [5] it was over 100 µM; in [6] it was over 100 µM. In addition, the TGI is 65.2 µM in experiment [7], over 100 µM in experiment [8], over 100 µM in experiment [9] and 37.9 µM in experiment [10].
Take `CO/N=C1/c2sccc2[C@H](NC(=O)C(F)(F)F)[C@@H]1O`: the TGI in experiment [1], in experiment [2], in [3], in experiment [4], in experiment [5] and in [6] was over 100 µM in each case. Besides, the TGI in [7], in experiment [8], in [9] and in [10] was over 100 µM throughout.
For `C[C@]12C=CC(=O)C=C1CC[C@@H]1[C@@H]2C(=O)C[C@@]2(C)[C@H]1CC[C@]2(O)C(=O)CO`, the TGI in experiment [1], in experiment [2], in [3], in experiment [4], in experiment [5] and in experiment [6] was over 100 µM in each case. Moreover, the TGI in experiment [7], in experiment [8], in experiment [9] and in experiment [10] was over 100 µM throughout.
